The text below walks through data of ChEMBL document CHEMBL4342471, “Discovery of Thieno[2,3-d]pyrimidine-Based Hydroxamic Acid Derivatives as Bromodomain-Containing Protein 4/Histone Deacetylase Dual Inhibitors Induce Autophagic Cell Death in Colorectal Carcinoma Cells” (J Med Chem, 2020).

In assay [1] the test system is HCT-116. As to the kind of experiment: Antiproliferative activity against human HCT116 cells assessed as reduction in cell viability measured after 24 to 48 hrs by MTT assay. It counts as functional, cell-based.
The target of assay [2] is Bromodomain-containing protein 4 (Homo sapiens, UniProt O60885). As to the kind of experiment: Inhibition of GST-tagged BRD4 bromodomain (unknown origin) using biotinylated histone H4KAc peptide (1 to 21 residues) as substrate by HTRF assay.
The test system of assay [3] is SW-620. As to the kind of experiment: Antiproliferative activity against human SW620 cells assessed as reduction in cell viability measured after 24 to 48 hrs by MTT assay. It counts as functional, cell-based.
Assay [4] has as its system DLD-1. As to the kind of experiment: Antiproliferative activity against human DLD1 cells assessed as reduction in cell viability measured after 24 to 48 hrs by MTT assay. The class given is functional, cell-based.
The target in assay [5] is T1, Histone deacetylase 7 (Homo sapiens, UniProt Q8WUI4).
T1 sequence (Q8WUI4 whole entry): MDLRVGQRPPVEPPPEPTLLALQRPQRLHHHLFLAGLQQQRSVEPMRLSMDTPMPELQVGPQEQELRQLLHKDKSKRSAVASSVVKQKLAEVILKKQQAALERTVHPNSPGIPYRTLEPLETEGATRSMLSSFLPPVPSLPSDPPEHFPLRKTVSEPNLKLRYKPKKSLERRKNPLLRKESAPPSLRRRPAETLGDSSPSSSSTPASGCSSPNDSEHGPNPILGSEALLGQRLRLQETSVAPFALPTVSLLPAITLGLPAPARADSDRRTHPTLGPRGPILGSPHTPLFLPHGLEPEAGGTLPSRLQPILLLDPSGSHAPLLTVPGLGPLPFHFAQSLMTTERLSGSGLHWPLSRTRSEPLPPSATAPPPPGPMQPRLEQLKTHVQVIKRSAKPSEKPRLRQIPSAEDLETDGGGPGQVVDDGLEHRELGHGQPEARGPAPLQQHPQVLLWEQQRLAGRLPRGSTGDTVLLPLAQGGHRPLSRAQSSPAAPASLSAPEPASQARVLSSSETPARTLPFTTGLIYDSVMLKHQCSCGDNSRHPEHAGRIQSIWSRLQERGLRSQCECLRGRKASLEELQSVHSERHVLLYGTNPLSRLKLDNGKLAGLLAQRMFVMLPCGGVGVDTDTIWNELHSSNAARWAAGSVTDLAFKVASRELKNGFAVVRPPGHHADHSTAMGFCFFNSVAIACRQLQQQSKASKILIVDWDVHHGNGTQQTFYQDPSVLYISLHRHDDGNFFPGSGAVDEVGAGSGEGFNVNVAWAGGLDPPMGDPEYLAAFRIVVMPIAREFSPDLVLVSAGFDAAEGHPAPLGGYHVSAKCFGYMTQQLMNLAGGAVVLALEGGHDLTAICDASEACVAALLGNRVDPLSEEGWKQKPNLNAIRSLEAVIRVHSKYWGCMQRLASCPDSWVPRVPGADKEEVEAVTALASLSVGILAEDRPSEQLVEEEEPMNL
As to the kind of experiment: Inhibition of HDAC7 (unknown origin) using biotinylated histone H3 KAc peptide (1 to 21 residues) as substrate by HTRF assay.

Assay [6] concerns the target Histone deacetylase 2 (Homo sapiens, UniProt Q92769).
Assay [7] addresses T2, Protein deacetylase HDAC6 (Homo sapiens, UniProt Q9UBN7).
T2 sequence (Q9UBN7 whole entry): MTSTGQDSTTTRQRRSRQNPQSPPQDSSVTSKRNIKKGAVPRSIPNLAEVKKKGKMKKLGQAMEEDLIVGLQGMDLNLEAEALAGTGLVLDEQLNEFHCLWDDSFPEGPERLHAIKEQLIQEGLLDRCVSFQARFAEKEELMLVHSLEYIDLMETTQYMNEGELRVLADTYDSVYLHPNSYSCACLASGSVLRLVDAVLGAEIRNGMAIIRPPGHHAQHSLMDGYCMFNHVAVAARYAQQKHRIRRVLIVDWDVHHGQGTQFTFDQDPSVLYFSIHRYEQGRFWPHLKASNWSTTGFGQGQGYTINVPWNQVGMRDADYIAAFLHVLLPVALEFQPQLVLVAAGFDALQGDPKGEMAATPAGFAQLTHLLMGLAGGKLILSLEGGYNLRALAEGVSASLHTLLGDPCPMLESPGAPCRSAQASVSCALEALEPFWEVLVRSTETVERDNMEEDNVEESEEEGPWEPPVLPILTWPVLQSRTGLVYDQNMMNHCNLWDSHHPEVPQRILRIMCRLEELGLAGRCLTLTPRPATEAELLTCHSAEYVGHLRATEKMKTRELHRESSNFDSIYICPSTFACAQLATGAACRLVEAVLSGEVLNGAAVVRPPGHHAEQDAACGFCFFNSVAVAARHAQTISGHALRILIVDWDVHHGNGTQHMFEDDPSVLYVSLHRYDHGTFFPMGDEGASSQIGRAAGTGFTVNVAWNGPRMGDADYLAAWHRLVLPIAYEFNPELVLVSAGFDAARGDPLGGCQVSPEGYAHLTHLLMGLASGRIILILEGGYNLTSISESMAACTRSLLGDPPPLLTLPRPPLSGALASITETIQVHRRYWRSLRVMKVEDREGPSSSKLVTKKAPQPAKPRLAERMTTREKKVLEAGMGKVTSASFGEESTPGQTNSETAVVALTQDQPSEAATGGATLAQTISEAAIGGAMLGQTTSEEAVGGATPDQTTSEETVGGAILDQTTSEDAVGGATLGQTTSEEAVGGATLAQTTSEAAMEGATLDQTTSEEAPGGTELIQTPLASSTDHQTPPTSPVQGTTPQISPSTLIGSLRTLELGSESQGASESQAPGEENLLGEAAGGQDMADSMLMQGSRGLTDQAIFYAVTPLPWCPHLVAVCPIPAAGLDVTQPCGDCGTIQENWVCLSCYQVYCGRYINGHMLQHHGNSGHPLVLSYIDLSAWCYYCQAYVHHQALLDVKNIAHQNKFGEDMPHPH
As to the kind of experiment: Inhibition of HDAC6 (unknown origin) using biotinylated histone H3 KAc peptide (1 to 21 residues) as substrate by HTRF assay.

Sequence of Histone deacetylase 2 (Q92769 whole entry): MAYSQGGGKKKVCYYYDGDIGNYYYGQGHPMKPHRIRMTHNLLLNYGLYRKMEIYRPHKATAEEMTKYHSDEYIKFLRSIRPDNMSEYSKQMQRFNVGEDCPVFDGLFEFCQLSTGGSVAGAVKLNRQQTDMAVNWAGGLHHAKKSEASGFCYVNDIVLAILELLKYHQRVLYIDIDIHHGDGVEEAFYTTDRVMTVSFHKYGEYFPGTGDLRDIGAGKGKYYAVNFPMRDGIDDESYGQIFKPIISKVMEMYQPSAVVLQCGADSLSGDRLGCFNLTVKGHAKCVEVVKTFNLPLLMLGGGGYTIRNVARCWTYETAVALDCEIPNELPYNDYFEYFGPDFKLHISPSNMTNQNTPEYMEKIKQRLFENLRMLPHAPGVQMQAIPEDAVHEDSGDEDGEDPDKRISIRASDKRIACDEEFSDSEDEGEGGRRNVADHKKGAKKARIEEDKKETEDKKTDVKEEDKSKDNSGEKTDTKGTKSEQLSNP

As to `O=c1[nH]c(-c2ccccc2)nc2sc3c(c12)CCC3`, the IC50 in assay [1] and in assay [2] was more than 10 µM in each case.
With `Cc1cc(-c2nc3sc4c(c3c(=O)[nH]2)CCN(C)C4)cc(C)c1OCc1ccc(C(=O)NO)cc1`, the IC50 in assay [3] was 3.87 µM; in assay [4], 6.24 µM; in assay [1], 1.07 µM; in assay [2], 1.77 µM; in assay [5] it was more than 10 µM; in assay [6], 0.105 µM. This compound had an IC50 in assay [7] of 0.188 µM.
In the case of `Cc1cc(-c2nc3sc4c(c3c(=O)[nH]2)CCN(C)C4)cc(C)c1OCCCC(=O)NO`, the IC50 in assay [3] is 3.83 µM; in assay [4] it was 9.72 µM; in assay [1], 2.08 µM; in assay [2], 1.17 µM; in assay [5] it was more than 10 µM; in assay [6], 0.16 µM. Besides, the IC50 in assay [7] is 0.25 µM.
`Cc1noc(C)c1-c1nc2sc3c(c2c(=O)[nH]1)CCN(C)C3`: the IC50 is 9.77 µM in assay [1] and 2.41 µM in assay [2].
On the same counts, the results for `O=c1[nH]c(-c2ccccc2)nc2sc3c(c12)CCN(Cc1ccccc1)C3` are more than 10 µM and more than 10 µM.
In the case of `Cc1noc(C)c1-c1nc2sc3c(c2c(=O)[nH]1)CCN(CC(=O)NO)C3`, the IC50 in assay [3] is 19.6 µM; in assay [4] it was 22.6 µM; in assay [1], 22.8 µM; in assay [2] it was more than 10 µM; in assay [5], more than 10 µM; in assay [6] it was 0.489 µM. Besides, 0.455 µM corresponded to half-maximal inhibition in assay [7] (IC50).
As to `O=c1[nH]c(-c2ccc(O)cc2)nc2sc3c(c12)CCN(Cc1ccccc1)C3`, the IC50 in assay [1] and in assay [2] was more than 10 µM throughout.
As to `Cc1cc(-c2nc3sc4c(c3c(=O)[nH]2)CCN(C)C4)cc(C)c1OCc1ccc(C(=O)Nc2ccccc2N)cc1`, the IC50 is 5.49 µM in assay [3]; more than 10 µM in assay [4]; 4.32 µM in assay [1]; 2.55 µM in assay [2]; more than 10 µM in assay [5]; 0.14 µM in assay [6]. Further, the IC50 in assay [7] was more than 10 µM.
As to `Cc1noc(C)c1-c1nc2sc3c(c2c(=O)[nH]1)CCN(CCCCCC(=O)Nc1ccccc1N)C3`, the IC50 in assay [3] is 11.1 µM; in assay [4] it was 14.8 µM; in assay [1], 15.2 µM; in assay [2], more than 10 µM; in assay [5], more than 10 µM; in assay [6] it was 0.112 µM. Further, in assay [7], the IC50 amounted to 0.196 µM.
Take `COC(=O)CCCCCN1CCc2c(sc3nc(-c4c(C)noc4C)[nH]c(=O)c23)C1`: the values for the IC50 in assay [1] and in assay [2] were 17 µM and 3.62 µM, respectively.
In the same order, the values of `Cc1cc(C)cc(-c2nc3sc4c(c3c(=O)[nH]2)CCC4)c1` are more than 10 µM and more than 10 µM.
Consider `Cc1cc(-c2nc3sc4c(c3c(=O)[nH]2)CCN(C)C4)cc(C)c1OCCOCc1ccc(/C=C/C(=O)NO)cc1`, for which the IC50 in assay [3] was 3.85 µM; in assay [4] it was 3.04 µM; in assay [1] it was 0.69 µM; in assay [2], 0.98 µM; in assay [5], more than 10 µM; in assay [6] it was 0.085 µM. Further, the IC50 in assay [7] turned out to be 0.159 µM.
`CCN1CCc2c(sc3nc(-c4ccc(O)cc4)[nH]c(=O)c23)C1`: the IC50 in assay [1] and in assay [2] was more than 10 µM throughout.
For the compound `Cc1cc(-c2nc3sc4c(c3c(=O)[nH]2)CCCC4)cc(C)c1O`, the results for the IC50 in assay [1] and in assay [2] were 5.41 µM and 1.81 µM, respectively.
On the same counts, the results for `O=c1[nH]c(-c2ccc(O)cc2)nc2sc3c(c12)CCC3` are more than 10 µM and 9.28 µM.
On the same counts, the results for `Cc1cc(-c2nc3sc4c(c3c(=O)[nH]2)CCN(Cc2ccccc2)C4)cc(C)c1O` are more than 10 µM and more than 10 µM.
On the same counts, the results for `O=c1[nH]c(-c2ccc(O)cc2)nc2sc3c(c12)CCCC3` are 9.73 µM and 5.77 µM.
`Oc1nc(-c2ccccc2)nc2sc3c(c12)CCCC3`: the IC50 in assay [1] and in assay [2] was more than 10 µM in each case.
Turning to `COC(=O)CN1CCc2c(sc3nc(-c4c(C)noc4C)[nH]c(=O)c23)C1`, the figures for the IC50 in assay [1] and in assay [2] were 16.2 µM and 6.68 µM, respectively.
Turning to `CN1CCc2c(sc3nc(-c4ccccc4)[nH]c(=O)c23)C1`, the IC50 in assay [1] and in assay [2] was more than 10 µM each time.
On to `Cc1cc(C)cc(-c2nc3sc4c(c3c(=O)[nH]2)CCN(C)C4)c1`, for which the IC50 in assay [1] and in assay [2] was more than 10 µM in each case.
With `Cc1cc(C)cc(-c2nc3sc4c(c3c(=O)[nH]2)CCN(Cc2ccccc2)C4)c1`, the IC50 in assay [1] and in assay [2] was more than 10 µM in each case.
On to `Cc1noc(C)c1-c1nc2sc3c(c2c(=O)[nH]1)CCN(CC(=O)Nc1ccccc1N)C3`, for which the IC50 in assay [3] was 15.2 µM; in assay [4], 15.2 µM; in assay [1], 28.3 µM; in assay [2] it was more than 10 µM; in assay [5], more than 10 µM; in assay [6], 0.352 µM. For the same compound, 0.391 µM corresponded to half-maximal inhibition in assay [7] (IC50).
`CCN1CCc2c(sc3nc(-c4cc(C)cc(C)c4)[nH]c(=O)c23)C1`: the IC50 in assay [1] and in assay [2] was more than 10 µM throughout.
In the case of `Cc1cc(-c2nc3sc4c(c3c(=O)[nH]2)CCN(C)C4)cc(C)c1OCc1cccc(C(=O)NO)c1`, the half-maximal inhibitory concentration (IC50) in assay [3] was 7.83 µM; in assay [4], 9.16 µM; in assay [1], 5.49 µM; in assay [2], 1.93 µM; in assay [5], more than 10 µM; in assay [6], 0.251 µM. The compound also gave an IC50 in assay [7] of 0.78 µM.
`CCN1CCc2c(sc3nc(-c4cc(C)c(O)c(C)c4)[nH]c(=O)c23)C1`: the figures for the IC50 in assay [1] and in assay [2] were 8.91 µM and 5.6 µM, respectively.
On the same counts, the results for `CCN1CCc2c(sc3nc(-c4ccccc4)[nH]c(=O)c23)C1` are more than 10 µM and more than 10 µM.
In the same order, the values of `CN1CCc2c(sc3nc(-c4ccc(O)cc4)[nH]c(=O)c23)C1` are 8.68 µM and 6.31 µM.
Regarding `Cc1cc(C)cc(-c2nc3sc4c(c3c(=O)[nH]2)CCCC4)c1`, the IC50 in assay [1] and in assay [2] was more than 10 µM throughout.
Consider `Cc1cc(-c2nc3sc4c(c3c(=O)[nH]2)CCC4)cc(C)c1O`, for which the figures for the IC50 in assay [1] and in assay [2] were 4.85 µM and 2.64 µM, respectively.
On the same counts, the results for `COC(=O)CCCN1CCc2c(sc3nc(-c4c(C)noc4C)[nH]c(=O)c23)C1` are 12.7 µM and 5.93 µM.
